Key:
[1] = tested on: murine embryonic fibroblasts cells; conditions: 5 μM aza-dC; cited from earlier work
HEK293T cells = assay: FPDM measurement of cellular DNA methylation after 5-aza-dC treatment; format: cell-based, human; conditions: 3 days, 100 ng DNA

With `Nc1ncn([C@H]2C[C@H](O)[C@@H](CO)O2)c(=O)n1` [5-aza-dC, 5-aza-2′-deoxycytidine] as the compound, how does the “hypomethylation relative to the untreated control” value [1] read?
Its value is “about 42%”.

And the “cellular DNA methylation measured by FPDM, relative to untreated control” value (HEK293T cells; 5 μM 5-aza-dC)?
The value was 67.73±0.53 % of control.

What about the “cellular DNA methylation measured by FPDM, relative to untreated control” value (HEK293T cells; 10 μM 5-aza-dC) of the same compound?
The value was 45.16±8.84 % of control.
